# Measured values from patent publication US20170009242A1, “CRISPR-Mediated Genome Engineering for Protein Depletion” (Whitehead Institute for Biomedical Research, priority 2015, published 2017).
# Tested on: CENP-I-AID-EGFP fusion protein
# Experiment: Auxin-induced depletion of endogenously tagged CENP-I-AID-EGFP, immunofluorescence microscopy
# Type: cell-based
# Conditions: osTIR1-expressing DLD-1 cells, interphase cell; IAA 500 μM for 12 hr; immunofluorescence (FIG. 3)
# Procedure: DLD-1 cell lines were cultured as described previously in Dulbecco's Modified Eagle Medium (DMEM) supplemented with 10% fetal bovine serum (FBS), penicillin/streptomycin and 2 mM L-glutamine. Indole-3-acetic acid (IAA) (15148; Sigma) was dissolved in water and added to cells at a concentration of 500 μM for 12 hr. osTIR1-9Myc was cloned into the pBabe-puro vector and introduced into cell lines using retroviral delivery. Stable integrants were selected in puromycin and single clones isolated using single cell sorting. Western Blot analysis using an antibody raised against the Myc tag was used to determine the expression level of TIR1 protein in different clones. Rapidly growing clones with the high levels of osTIR1 expression were selected for further use. 2.5 ug each of pX330-GFP and the donor plasmid were co-transfected into osTIR1-9Myc expressing cells using Lipofectamine 2000 (Invitrogen) and OptiMEM according to the manufacturer's instructions. 24 h after transfection cells, were transferred to a 20 cm dish, and 48 h later cells were selected in […] G418 (Gibco) and 2 ug/ml puromycin to maintain the osTIR1. Colonies were harvested after 2 weeks and FACS sorted to isolate individual cells. […]
compound,measurement,value
"O=C(O)Cc1c[nH]c2ccccc12 [IAA, Indole-3-acetic acid]",CENP-I-AID-EGFP fusion protein at kinetochores upon addition of IAA,no longer observed
same,associated proteins such as CENP-T at kinetochores upon addition of IAA,lost from kinetochores
